Data on seven compounds can be found in publication PMC3098202, “Inhibition of Both HIV-1 Reverse Transcription and Gene Expression by a Cyclic Peptide that Binds the Tat-Transactivating Response Element (TAR) RNA” (PLoS Pathogens, 2011).

Assay [1] relates to HIV NL4-3. The assay can be described thus: Inhibition of HIV NL4-3 in PHA/IL-2 stimulated human PBMC. The class given is cell-based, HIV-1. The conditions noted are these: Human immunodeficiency virus 1, NL43; human PBMC stimulated with PHA/IL-2; RT activity in supernatant at 8 and 10 days post-infection. On the procedure: Figure 2 Testing the susceptibility of HIV-1 to inhibition by Tat peptidomimetics. (A) Comparison of the relative inhibition of the HIV-1 NL4-3 laboratory strain by three lead Tat peptidomimetics. Virus production in cell free supernatant was measured using an endogenous RT assay. […] (D) L-50 inhibition of viral replication of three primary CCR5-tropic HIV-1 isolates measured in U87.CD4.CCR5 cells (A1 is the subtype A Rawandan isolate A1-92RW009, B5 is the subtype B isolate B5-91US056 from the USA and C5 is the subtype C isolate C5-97ZA003 from South Africa) and of CXCR4-tropic strains (D1 is the Ugandan subtype D isolate D1-92UG021, E6 is the subtype A/E circulating recombinant isolate CRF01_AE from Thailand) as well as the laboratory strain HIV-1NL4-3 measured in U87.CD4.CXCR4 cell cultures. […] (E) Inhibition of HIV NL4-3 was also measure in human peripheral blood mononuclear cells stimulated with PHA/IL-2. […] Virus production was measured at 8 and 10 days post-infection by the RT activity in the supernatant (cpm/mL).
Drug sensitivity assays were performed on U87.CD4.CXCR4/CCR5 cells and in peripheral blood mononuclear cells (PBMC). […] Supernatant aliquots were removed and virus production was quantified by reverse transcriptase assay. […] Cells were incubated for 72 h and then treated with lysis buffer and luciferase activity was determined. […]

Assay [2] relates to HIV-1NL4-3 carrying firefly luciferase. The conditions noted are these: cited from earlier work. The text has this:
There is also evidence that Tat plays a role in viral reverse transcription, although much of this work has been controversial. Loss of function Tat mutants have been reported to impair reverse transcription 3- to 5-fold compared to wild type HIV-1 both in infected T cells and in endogeneous reverse transcription reactions, [69]. Tat-mediated RNA secondary structure remodeling may facilitate obligatory strand transfers during viral DNA synthesis by reverse transcriptase. However, it is possible to create replication-competent viruses where the TAR RNA sequence is replaced by a ...

The test system is the same in assay [3]. It counts as cell-based. The settings on record: for t1/2, time of drug addition that maintains 50% inhibition: AMD3100 10 µM, T20 10 µM, 3TC 100 µM, Raltegravir 10 µM, DRB 50 µM.
The test system of assay [4] is Tat/Rev-dependent luciferase after 293T (HIV-1 Env) / U87.CD4.CXCR4 cell fusion. The conditions noted are these: for t1/2, time of drug addition that maintains 50% inhibition, cell-to-cell fusion: monophasic, Tat/Rev-dependent luciferase in cell lysates, triplicate.
Assay [5] relates to murine leukemia virus (MLV). The class given is cell-based.
Assay [6] deals with HIV-1NL4-3. The assay can be described thus: Inhibition of HIV-1 NL4-3 replication in U87.CD4.CXCR4 cells (RT activity in supernatant). It counts as cell-based. On the procedure: Drug sensitivity assays were performed on U87.CD4.CXCR4/CCR5 cells and in peripheral blood mononuclear cells (PBMC). Peptidomimetics or control drugs were added to cells to yield final concentrations between 100 µM and 10 nM. Cells were incubated with drug for 1 h and exposed to the virus at a multiplicity of infection of 0.001, incubated with the virus for 24 h, and input virus washed away. Supernatant aliquots were removed and virus production was quantified by reverse transcriptase assay. Virus production at each drug concentration was normalized and the relative values were plotted versus drug concentration to determine 50% inhibitory concentrations (IC50). Variations on these drug susceptibility assays are defined in each figure and related text. For the time-of-drug-inhibition experiments, HIV-1 was spinonculated onto U87-CD4/CCR5 cells as previously described. The cells were washed twice with cold phosphate buffered saline (PBS) to remove unbound virions. Cells were resuspended in cold medium and split into 96-well plates (50 µl/well). […] Cells were incubated for 72 h and then treated with lysis buffer and luciferase activity was determined. The same procedure was utilized for the time-of-drug-addition experiment involving cell-to-cell fusion. […]

The test system of assay [7] is HIV-1Luc-AM. It counts as cell-based.
Assay [8] concerns (-) strand strong stop DNA synthesis by recombinant HIV-1 RT (p66/p51) on wild type TAR template. The assay can be described thus: Reconstituted in vitro reverse transcription, wild type R_U5_pbs RNA template. It counts as biochemical.
From the text: This assay measures the synthesis of (-) strand strong stop DNA by recombinant HIV-1 RT (p66/p51) from an 18 nt DNA primer, pre-annealed to an HIV-1 RNA template encompassing the repeat (R), 5′ unique sequence (U5), and the primer binding sequence (PBS) [49].
HIV-1 RNA representing the wild type R, U5, pbs, and uncoding sequence (270 nt) (wt R_U5_pbs RNA) was produced by in vitro T3 transcription (T3 MegaScript, Ambion) from a PCR product (with T3 extended primer) derived from NL4-3. […] The DNA primer (18 nt), complementary to the primer binding sequence (3′ end of tRNA^Lys,3), was annealed to the template as described [78]. The DNA primer was annealed to the various HIV-1 RNA templates by denaturation and annealing conditions previously described [78]. […] Reactions were incubated at 37°C for 45 min and then quenched with formamide EDTA loading buffer [78] for subsequent electrophoresis on a 8% denaturing polyacrylamide gel. Gels were autoradiographed and analyzed with a BioRad phosphorimager.
Assay [9] deals with CMV promoter. The assay can be described thus: CMV promoter luciferase control reporter in 293T cells. It counts as cell-based.
Assay [10] concerns HIV-1 TAR. The conditions noted are these: cited from earlier work. The text has this: Linear peptide derivatives have been used previously to target TAR RNA and block Tat binding, [17], [20], [21] but their utility was limited by conformational flexibility which allowed non-specific RNA binding. To avoid this problem we have developed conformationally constrained mimics of HIV-1 Tat [24]–[27] based on the structure of the BIV (Bovine Immunodeficiency Virus) Tat-TAR complex, [29] (Figure 1). Specifically, we constructed a series of ß-hairpin mimics with 12-residue loops on a heterochiral D-Pro-L-Pro dipeptide scaffold. This D-Pro-L-Pro scaffold strongly ... || Our design of inhibitors of the TAR RNA-Tat protein interaction started with the assumption that constrained peptidomimetics would provide effective rationale to block the relatively large interfaces formed between the viral protein and its cognate RNA [24]–[27]. The D-Pro-L-Pro template restricts pharmacophores into planar ß-hairpin structures with side chains emerging from each side. […] Specific and high affinity binding allow ...

Assay [11] concerns HIVNL4-3 transcription / virus production. In words: Single-cycle growth assay, 293T cells transfected with pNL4-3 (Figure 3C). The settings on record: 50 µM; 293T cells transfected with HIVNL4-3; monitored by RT activity.
The test system of assay [12] is Tat-mediated transactivation of HIV-1 LTR. In words: LTR-luciferase reporter + Tat in 293T cells (Figure 3B). The class given is cell-based. The conditions noted are these: 10 µM.
Assay [13] deals with HIV-1 LTR promoter. The assay can be described thus: pLTR.LUC reporter alone or co-transfected with HIV-1NL4-3 in 293T cells (Figure 4). The class given is cell-based.
Assay [14] deals with HIV-1NL4-3. In words: Infection of U87.CD4.CXCR4 cells with supernatants of L-50-treated 293T transfections (Figure 4D). It counts as cell-based. On the procedure:
To test whether the virus released from transfected cells could be inhibited by L-50 under conditions of multiple-cycle growth, virus-containing supernatants from 293T transfections (containing L-50) were used to infect U87.CD4.CXCR4 cells (which support multiple rounds of HIV-1 replication) and viral progeny were measured 10 days post-infection. […] Removal of L50 from virus was attempted by pelleting virus from supernatant of L50-treated cells transfected with NL4-3. It is important to note that virus production was already decreased by L50 at least 50% from transfected cells.

Assay [15] concerns (-) strand strong stop DNA synthesis by HIV-1 RT on mutant TAR template. The assay can be described thus: Reconstituted in vitro reverse transcription, mutant TAR RNA template. It counts as biochemical. The settings on record: 8 µM.
From the text: To determine if L-50 inhibition of reverse transcription was dependent on the high affinity Tat-binding site located at the TAR bulge, mutations that inactivate Tat-binding were introduced into the RNA template (Figure 9A).
The mutant TAR RNA transcript (with mutations 5′-UCUG-3′ to 5′-UGGU-3′ in the bulge) was generated by T3 transcription from a PCR product with the forward primer having the nt substitutions for site-directed mutagenesis. […] The DNA primer (18 nt), complementary to the primer binding sequence (3′ end of tRNA^Lys,3), was annealed to the template as described [78]. The DNA primer was annealed to the various HIV-1 RNA templates by denaturation and annealing conditions previously described [78]. […] Reactions were incubated at 37°C for 45 min and then quenched with formamide EDTA loading buffer [78] for subsequent electrophoresis on a 8% denaturing polyacrylamide gel. Gels were autoradiographed and analyzed with a BioRad phosphorimager.
Assay [16] has as its system Tat-dependent transcription from HIV-1 LTR. The assay can be described thus: Tat-dependent transactivation in cell-free transcription. It counts as biochemical.
Assay [17] relates to BIV TAR RNA. The settings on record: Discussion; cited from earlier work. The text has this:
Our design of inhibitors of the TAR RNA-Tat protein interaction started with the assumption that constrained peptidomimetics would provide effective rationale to block the relatively large interfaces formed between the viral protein and its cognate RNA [24]–[27]. The D-Pro-L-Pro template restricts pharmacophores into planar ß-hairpin structures with side chains emerging from each side. […] Specific and high affinity binding allow ...

Where [18] appears, read: synchronized infection, luciferase at 72 h, triplicate.
Where [19] appears, read: U87.CD4.CXCR4 cells, Tat-independent SV40-driven reporter.
The mark [20] stands for this setting: L50 250 µM, synchronized infection, luciferase at 72 h, triplicate.

The structures appear in SMILES notation. Where two headings read alike, the source gives them in different places. Peptide text beside a SMILES is read from it.

`Cc1ccnc2c1NC(=O)c1cccnc1N2C1CC1` [NVP] returned a half-inhibitory concentration (IC50) in assay [1] of 65 nM. Besides, the “t1/2 of nevirapine in time-of-drug-addition” value in [2] is listed as roughly 7 h.

Take `c1cc(CN2CCCNCCNCCCNCC2)ccc1CN1CCCNCCNCCCNCC1` [AMD3100, reference compound]: the “t1/2, time of drug addition that maintains 50% inhibition” value in [3] (setting [18]) stood at 0.77 h. In addition, the “Inhibition of cell-to-cell fusion” value in [4] is “highly sensitive to inhibition”.

Regarding `Nc1ccn([C@@H]2CS[C@H](CO)O2)c(=O)n1` [3TC], in assay [5], the “Inhibition of MLV replication (words, Discussion)” value (“Inhibition … (words, Discussion)” for short) is on record as “blocked MLV replication”. Further, the half-maximal inhibitory concentration (IC50) in assay [6] (Human immunodeficiency virus 1, virus production by RT assay, MOI 0.001) worked out at 120 ± 30 nM; in assay [1], 10 nM. Also, the “Luciferase expression in HIV-1Luc-AM infected cells” value in [7] (setting [19]) is reported as “efficiently inhibited”.

Regarding `Cc1cn([C@H]2C[C@H](N=[N+]=[N-])[C@@H](CO)O2)c(=O)[nH]c1=O` [AZT], the “Inhibition … (words, Discussion)” value in [5] was “blocked MLV replication”. Further, the “Inhibition of MLV replication” value in assay [5] (100 µM) is given as “completely blocked”.

Regarding `OC[C@H]1O[C@@H](n2cnc3cc(Cl)c(Cl)cc32)[C@H](O)[C@@H]1O` [DRB, 5,6-dichloro-1-ß-D-ribobenzimidazole, reference compound], in [7] (setting [19]), the “Luciferase expression in HIV-1Luc-AM infected cells” value is “efficiently inhibited”. Also, in [3] (setting [18]), the “t1/2, time of drug addition that maintains 50% inhibition” value is 35.3 h. Besides, in [4], the “t1/2, time of drug addition that maintains 50% inhibition, cell-to-cell fusion” value is listed as 11.3 h.

For `CC[C@H](C)[C@@H]1NC(=O)[C@H](CCCNC(=N)N)NC(=O)[C@H](CCCNC(=N)N)NC(=O)[C@H](CCCCN)NC(=O)CNC(=O)[C@H](CCCNC(=N)N)NC(=O)[C@H]([C@@H](C)O)NC(=O)[C@H](CCCNC(=N)N)NC(=O)[C@H](C(C)C)NC(=O)[C@H](CCCNC(=N)N)NC(=O)[C@@H]2CCCN2C(=O)[C@H]2CCCN2C(=O)[C@H](CCCNC(=N)N)NC(=O)[C@H](CCCNC(=N)N)NC1=O` [L-50] (HELM PEPTIDE1{R.V.R.T.R.G.K.R.R.I.R.R.[dP].P}$PEPTIDE1,PEPTIDE1,1:R1-14:R2$$$V2.0), in [5], the “Inhibition of MLV” value was “did not inhibit” and the “Inhibition … (words, Discussion)” value is “did not”. Moreover, the “Inhibition of (−) strong stop synthesis on the wild type template” value in [8] (8 µM) is 80%. Also, the 50% inhibitory concentration (IC50) in assay [8] (read-out: IC50, inhibition of (−) strand strong stop DNA synthesis (as printed in picture of Figure 8B)) was determined as 5500 ± 570 nM. Besides, the IC50 in assay [8] (recombinant HIV-1 RT, 18 nt DNA primer, RNA template ∼2 µM, 37°C 45 min, triplicate, read-out: IC50, inhibition of (−) strand strong stop DNA synthesis) is 5500 ± 570 nM. Moreover, the “Inhibition of HIV-1NL4-3 replication” value in assay [6] (Figure 2A) was “able to inhibit replication”. Moreover, the “Reduction of transcription from control CMV promoter” value in [9] (10 µM, 293T cells) was determined as 12%. For the same compound, in [9] (50 µM, 293T cells cotransfected with HIVNL4-3), the “Reduction of CMV promoter-driven luciferase activity” value is “less than 5%”. For the same compound, the “CMV promoter-driven luciferase expression with HIV-1NL4-3” value in assay [9] (293T cells, Figure 4B) is on record as “not significantly inhibited”. The “Affinity for HIV-1 TAR” value in [10] (Discussion) is listed as “nanomolar affinities”. Further, the Kd in [10] (in vitro) is 1 nM. The “Inhibition of production of the viral RNA” value in [11] worked out at 76%. Besides, the “Reduction of Tat-mediated transactivation” value in [12] is on record as 53%. The “Luciferase expression in HIV-1Luc-AM infected cells” value in [7] was “efficiently blocked”. Besides, the “Decrease in luciferase expression (pLTR.LUC + HIV-1NL4-3)” value in assay [13] (200 µM, 293T cells, p = 0.03, N = 5) is 1.7 fold. For the same compound, the “HIV-1 virion expression” value in [13] (200 µM, RT activity in cell-free supernatant of transfected 293T cells) is on record as “modest, but reproducible reduction”. Further, the “Luciferase expression in cells transfected with either reporter plasmid alone” value in assay [13] (293T cells, no Tat) is “did not inhibit”. For the same compound, the “Decrease of virus production from transfected cells” value in assay [14] (293T cells transfected with NL4-3) is on record as “at least 50%”. The “Viral progeny 10 days post-infection” value in assay [14] (U87.CD4.CXCR4 cells infected with virus made in the presence of L-50) was “No measurable viral progeny”. For the same compound, in assay [3] (setting [20]), the “t1/2, first (early) phase of biphasic inhibition” value is recorded as 1.8 h and the “t1/2, second (late) phase of biphasic inhibition” value came out at 35.7 h. Besides, the “Block of viral replication in the initial inhibitory phase” value in assay [3] (added up to approximately 2 h post infection) was roughly 100%. The “Inhibition of (−) strong stop DNA synthesis on template with mutations in the TAR L-50 binding site” value in assay [15] is “less than 10%”. Further, in assay [4], the “Inhibition of cell-to-cell fusion” value was “no measurable inhibition” and the “t1/2, time of drug addition that maintains 50% inhibition, cell-to-cell fusion” value came out at 8.2 h. Further, the half-maximal inhibitory concentration (IC50) in [16] (cell-free transcription, nuclear extract, recombinant Tat, 20 min at 30°C, read-out: IC50, decrease of full-length transcripts (ρ)) was 50 nM. Moreover, the “Production of short transcripts (τ)” value in assay [16] (internal control for non-specific inhibition of transcription) is on record as “largely unaffected”. Also, in [17], the “Discrimination against BIV TAR RNA sequence” value was “effectively discriminated”.

With `Cc1nnc(C(=O)NC(C)(C)c2nc(C(=O)NCc3ccc(F)cc3)c(O)c(=O)n2C)o1` [Raltegravir, reference compound], the “t1/2, time of drug addition that maintains 50% inhibition” value in assay [3] (setting [18]) came to 11.5 h.
